This is an account of results in patent publication US20050209278A1, “Piperidinyl- and piperazinyl-sulfonylmethyl hydroxamic acids and their use as protease inhibitors” (priority 2002, published 2005).

For one test, the target named is T1, MMP-9 (Homo sapiens, UniProt P14780).
T1 construct: made in house; host or cells: MMP-9-transfected HT1080 cells (spent media)
The test can be described thus: In vitro MMP inhibition, Ki determination (fluorogenic substrate II). The class given is biochemical. In short, it runs like this: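 HT1080-derived MMP-9, activated with APMA, trypsin or MMP-3, incubated 1 hr at room temperature with inhibitor and 4 μM fluorogenic substrate II (at or below Km) in pH 7.5 Tris/NaCl/CaCl2 buffer; ex 330/em 420 nm. Ki from Morrison-equation regression, without substrate correction.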

For the next test, the target named is T2, MMP-14 (Homo sapiens, UniProt P50281).
T2 construct: The catalytic domain enzyme was expressed in E. coli inclusion bodies, solubilized in urea; made in house
Described as above. The class given is biochemical. The following applies: read-out: MMP-14 Ki. In short, it runs like this: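 E. coli-expressed, refolded MMP-14 catalytic domain, activated with APMA or trypsin, in 100 mM Tris-HCl pH 7.5, 100 mM NaCl, 10 mM CaCl2, 0.05% Brij-type detergent. Apparent Ki by Morrison-equation regression of velocity vs inhibitor and enzyme concentration.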

Read-outs that look alike come from different tables or passages of the source.

For orientation: Ki means a measure of affinity in units of concentration, obtained from inhibition or displacement.

T1 sequence (P14780 107-707 limits assumed): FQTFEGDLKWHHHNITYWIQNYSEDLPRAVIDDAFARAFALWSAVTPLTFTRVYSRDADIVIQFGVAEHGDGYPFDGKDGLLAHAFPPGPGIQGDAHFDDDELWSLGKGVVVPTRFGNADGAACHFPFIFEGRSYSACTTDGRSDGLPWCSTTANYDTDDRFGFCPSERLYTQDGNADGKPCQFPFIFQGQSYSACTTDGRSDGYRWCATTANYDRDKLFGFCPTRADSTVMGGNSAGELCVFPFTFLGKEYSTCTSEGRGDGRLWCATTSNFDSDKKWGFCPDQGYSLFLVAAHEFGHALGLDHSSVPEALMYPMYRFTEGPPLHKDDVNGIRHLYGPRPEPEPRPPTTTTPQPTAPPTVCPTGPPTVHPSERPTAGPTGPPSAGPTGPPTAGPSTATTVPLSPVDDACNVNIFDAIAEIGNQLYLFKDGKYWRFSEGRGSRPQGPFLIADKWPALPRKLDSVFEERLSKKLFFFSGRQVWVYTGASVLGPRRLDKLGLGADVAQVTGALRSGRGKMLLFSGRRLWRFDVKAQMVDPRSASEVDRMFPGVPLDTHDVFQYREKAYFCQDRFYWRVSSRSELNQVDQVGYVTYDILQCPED

Turning to `CCCCc1ccc(C2CCN(S(=O)(=O)C3(C(=O)NO)CCN(CCOC)CC3)CC2)s1` [Example 55], the inhibition constant Ki on MMP-9 (value not in parenthesis) is 0.35 nM; at MMP-14 (value not in parenthesis), 2450 nM.
Consider `O=C(NO)C1(S(=O)(=O)N2CCN(c3ccc(COCC(F)(F)C(F)F)cc3)CC2)CCOCC1` [Example 71], for which the Ki at MMP-9 (value not in parenthesis) was 13 nM.
On to `O=C(NO)C1(S(=O)(=O)N2CCN(c3ccc(COCC(F)(F)F)cc3)CC2)CCOCC1` [Example 72], for which the Ki at MMP-9 (value not in parenthesis) is 2.86 nM; on MMP-14 (value not in parenthesis) it was 7570 nM.
Regarding `O=C(NO)C1(S(=O)(=O)N2CCN(c3ccc(OC4CCC4)c(F)c3)CC2)CCOCC1` [Example 73], the figures for the inhibition constant Ki on MMP-9 (value not in parenthesis) and on MMP-14 (value not in parenthesis) were 7.97 nM and 2360 nM, respectively.
For `O=C(NO)C1(S(=O)(=O)N2CCN(c3ccc(OCc4ccccc4)cn3)CC2)CCOCC1` [Example 74], in that order: 4.8 nM and 454 nM.
With `O=C(NO)C1(S(=O)(=O)N2CCN(c3ccc(-c4ccccc4)cc3)CC2)CCOCC1` [Example 76], the Ki on MMP-9 (value not in parenthesis) was found to be 0.5 nM; on MMP-14 (value not in parenthesis), 358 nM.
The matching figures for `O=C(NO)C1(S(=O)(=O)N2CCN(c3ccc(CCC(F)(F)F)cc3)CC2)CCOCC1` [Example 77]: 0.8 nM and 1180 nM.
For `CCN1CCC(C(=O)NO)(S(=O)(=O)N2CCN(c3ccc(OCCCC(F)(F)F)cc3)CC2)CC1` [Example 78], in that order: 22.8 nM and above 10000 nM.
Turning to `CC(C)COc1ccc(N2CCN(S(=O)(=O)C3(C(=O)NO)CCOCC3)CC2)cc1Cl` [Example 79], the inhibition constant (Ki) was 41.5 nM at MMP-9 (value not in parenthesis) and 8820 nM at MMP-14 (value not in parenthesis).
Regarding `O=C(NO)C1(S(=O)(=O)N2CCN(c3ccc(OCCCC(F)(F)F)cc3F)CC2)CCOCC1` [Example 81], the values for the Ki at MMP-9 (value not in parenthesis) and at MMP-14 (value not in parenthesis) were 29.2 nM and 2430 nM, respectively.
As to `O=C(NO)C1(S(=O)(=O)N2CCN(c3cccc(C(F)(F)F)c3)CC2)CCOCC1` [Example 82], the inhibitory constant (Ki) at MMP-9 (value not in parenthesis) was found to be 249 nM; at MMP-14 (value not in parenthesis), 1600 nM.
The matching figures for `O=C(NO)C1(S(=O)(=O)N2CCN(c3ccc(OCCCC(F)(F)F)cn3)CC2)CCOCC1` [Example 83]: 4.21 nM and 981 nM.
As to `CCCCOc1ccc(N2CCN(S(=O)(=O)C3(C(=O)NO)CCN(C(C)(C)C)CC3)CC2)c(F)c1` [Example 84], the inhibitory constant (Ki) on MMP-9 (value not in parenthesis) was 17.9 nM; on MMP-14 (value not in parenthesis) it was above 10000 nM.
The matching figures for `CCCCOc1ccc(N2CCN(S(=O)(=O)C3(C(=O)NO)Cc4ccccc4C3)CC2)nc1` [Example 85]: 1.17 nM and 1510 nM.
Take `COCCN1CCC(C(=O)NO)(S(=O)(=O)N2CCN(c3ccc(OCCCCF)cc3)CC2)CC1` [Example 88]: the Ki was determined as 2.18 nM at MMP-9 (value not in parenthesis) and 2760 nM on MMP-14 (value not in parenthesis).
Consider `O=C(NO)C1(S(=O)(=O)N2CCN(c3ccc(OCCCCF)cc3)CC2)CCOCC1` [Example 89], for which the inhibition constant (Ki) at MMP-9 (value not in parenthesis) stood at 2.23 nM; at MMP-14 (value not in parenthesis) it was 2800 nM.
The matching figures for `CCCCOc1ccc(N2CCN(S(=O)(=O)C3(C(=O)NO)CCOCC3)CC2)c(F)c1` [Example 90]: 2.15 nM and 4550 nM.
Consider `CCCCc1ccc(N2CCN(S(=O)(=O)C3(C(=O)NO)CCOCC3)CC2)c(F)c1` [Example 91], for which the inhibitory constant (Ki) at MMP-9 (value not in parenthesis) amounted to 0.452 nM; at MMP-14 (value not in parenthesis), 1740 nM.
For `CCCCOc1ccc(N2CCN(S(=O)(=O)C3(C(=O)NO)CCN(c4nc5ccccc5s4)CC3)CC2)cc1` [Example 93], in that order: 60.1 nM and 9860 nM.
`CCCCOc1ccc(N2CCN(S(=O)(=O)C3(C(=O)NO)CCN(c4ccc(C)cc4)CC3)CC2)cc1F` [Example 296]: the Ki at MMP-9 (value outside parentheses) worked out at 47.6 nM.
For `COCCOc1ccc(N2CCN(S(=O)(=O)C3(C(=O)NO)CCN(C4CC4)CC3)CC2)cc1F` [Example 297], on MMP-9 (value outside parentheses), the inhibition constant Ki was 19.5 nM.
On the same count and under the same terms, with `CCCCOc1ccc(N2CCN(S(=O)(=O)C3(C(=O)NO)CCN(C4CC4)CC3)CC2)cc1` [Example 301] the figure was 9.11 nM.
Regarding `CCCCc1ccc(C2CCN(S(=O)(=O)C3(C(=O)NO)CCOCC3)CC2)nc1` [Example 307], the Ki at MMP-14 (value outside parentheses) was 1290 nM.
